Experimental data as given in patent US20200289482A1, “CYSTIC FIBROSIS TRANSMEMBRANE CONDUCTANCE REGULATOR MODULATORS FOR TREATING AUTOSOMAL DOMINANT POLYCYSTIC KIDNEY DISEASE” (The Johns Hopkins University, priority 2017, published 2020).

Assays:
CFTR = CFTR (Mus musculus, UniProt P26361); assay: Biotinylation of CFTR in PN cells; format: cell-based; design: endogenous in cells; host or cells: PN (Pkd1-null mouse proximal tubule) cells; details: VX-809 treatment vs control PN cells
Method: FIG. 19A, FIG. 19B, FIG. 19C, and FIG. 19D show CFTR expression in PN cells treated with VX-809 (10 μM) for 16 h.
The expression of CFTR was evaluated in PN cells treated with VX-809 and control PN cells. PN cells were treated with 10 μM VX-809 for 16 h or a control.

cAMP in PN cells = assay: Cyclic AMP enzyme immunoassay in cells; format: cell-based, mouse
Method: (§1) FIG. 4A, FIG. 4B, FIG. 4C, FIG. 4D, and FIG. 4E show (FIG. 4A-FIG. 4B) cAMP levels are reduced by VX-809. (FIG. 4A) cAMP levels in mouse tissue were reduced by VX-809. The kidney samples (n=6) analyzed were taken from those depicted in FIG. 1. (FIG. 4B) Confluent PN and PH cells were treated with VX-809 (10 μM) or DMSO for 16 h and then treated with forskolin (100 μM) for 30 min before the cells were harvested for the assay. Columns represent means±SEM. Statistical analysis was performed using a two-tailed Student's t-test. Each set of data is from three individual wells; Note that resting cAMP is greater in PN vs PH cells as previously shown (25). Also note that forskolin caused a large increase in cAMP. A smaller increase occurred with IBMX. However, the increase induced by forskolin alone was similar to that by IBMX plus forskolin. […] (FIG. 4C, FIG. 4D, and FIG. 4E) Adenylyl cyclase expression. (FIG. 4C) Western blot showing the expression of adenylyl cyclase (AC) 6 and AC3 in treated and control PN cells. (FIG. 4D-FIG. 4E) Columns represent means±SEM of the AC3 and AC6 expression. The data were analyzed by non-parametric t-test. The experiment was repeated four times. For all graphs, *P<0.05, **P<0.01, and ***P<0.001;
It has been shown previously in both animal and cell culture models of ADPKD that cells lacking functional PC1 have elevated cAMP levels when compared to normal (24). To assess the effect of CFTR correctors, cAMP activity was measured in PC1 conditional knockout mouse kidneys and in PN cells that were either left untreated or treated with VX-809. […] Cells were treated with forskolin, which increased cAMP levels drastically (FIG. 4B). […] Treating PN cells with forskolin or IBMX (FIG. 4B) increased the cAMP activity by ˜10-fold.
Confluent cells were treated with VX-809 (10 μM) or DMSO for 16 h before being harvested for assay. Cyclic AMP levels were measured with a direct cAMP Enzyme Immunoassay Kit (Sigma, # CA200) according to the manufacturer's protocol. The results are expressed as pmole/ml. Statistical analysis was performed using a two-tailed Student's t-test.

AC3 = assay: Western blot of adenylyl cyclase 3 expression; format: cell-based, mouse; details: PN cells treated with VX-809
Method: as §1
There are two classes of adenylyl cyclases that are regulated by intracellular Ca^2+: one class is activated, and the other inhibited. […]

Hsp70 = assay: Western blot of Hsp70 in PN cells; format: cell-based, mouse; details: VX-809 10 μM 16 h
Method: FIG. 8A, FIG. 8B, FIG. 8C, FIG. 8D, FIG. 8E, FIG. 8F, FIG. 8G, and FIG. 8H show chaperone expression is altered in PH and PN cells by VX-809. (FIG. 8A) Western blot showing expression of HSP27, 70 and HSP 90 in VX-809 treated or control PN cells. […] (FIG. 8E). Western blot of HSP27, 70 and 90 in PH vs. PN cells. […] Whereas, Hsp70 is higher in PH vs. PN cells. Data were analyzed by non-parametric t test. Experiment was repeated 4-5 times. Cells were grown in 10-cm culture dishes at permissive conditions (33° C.) with γ-interferon in culture media. Cells were then transferred to non-permissive conditions at 37° C., γ-interferon free culture media and evaluated at full confluence. At day four, cells were treated with VX-809 (10 μM) for 16 h and harvested on fifth day for assay. *P<0.05., **P<0.01, ***P<0.001, ****P<0.0001; To facilitate their growth in the kidney, cysts have developed an altered network of proteins that most likely serves to protect them from stress (34). Next, it was determined whether VX-809 would alter the levels of Hsps in pkd−/− mice and in PN cells. […] Hsp 27, 70 and 90 are all elevated in cystic kidneys compared to normal controls. […] There is no change in Hsp 40. […] Both sets of data are consistent with an alteration in the heat shock response to cyst growth.

Chain of CFTR (P26361 whole entry): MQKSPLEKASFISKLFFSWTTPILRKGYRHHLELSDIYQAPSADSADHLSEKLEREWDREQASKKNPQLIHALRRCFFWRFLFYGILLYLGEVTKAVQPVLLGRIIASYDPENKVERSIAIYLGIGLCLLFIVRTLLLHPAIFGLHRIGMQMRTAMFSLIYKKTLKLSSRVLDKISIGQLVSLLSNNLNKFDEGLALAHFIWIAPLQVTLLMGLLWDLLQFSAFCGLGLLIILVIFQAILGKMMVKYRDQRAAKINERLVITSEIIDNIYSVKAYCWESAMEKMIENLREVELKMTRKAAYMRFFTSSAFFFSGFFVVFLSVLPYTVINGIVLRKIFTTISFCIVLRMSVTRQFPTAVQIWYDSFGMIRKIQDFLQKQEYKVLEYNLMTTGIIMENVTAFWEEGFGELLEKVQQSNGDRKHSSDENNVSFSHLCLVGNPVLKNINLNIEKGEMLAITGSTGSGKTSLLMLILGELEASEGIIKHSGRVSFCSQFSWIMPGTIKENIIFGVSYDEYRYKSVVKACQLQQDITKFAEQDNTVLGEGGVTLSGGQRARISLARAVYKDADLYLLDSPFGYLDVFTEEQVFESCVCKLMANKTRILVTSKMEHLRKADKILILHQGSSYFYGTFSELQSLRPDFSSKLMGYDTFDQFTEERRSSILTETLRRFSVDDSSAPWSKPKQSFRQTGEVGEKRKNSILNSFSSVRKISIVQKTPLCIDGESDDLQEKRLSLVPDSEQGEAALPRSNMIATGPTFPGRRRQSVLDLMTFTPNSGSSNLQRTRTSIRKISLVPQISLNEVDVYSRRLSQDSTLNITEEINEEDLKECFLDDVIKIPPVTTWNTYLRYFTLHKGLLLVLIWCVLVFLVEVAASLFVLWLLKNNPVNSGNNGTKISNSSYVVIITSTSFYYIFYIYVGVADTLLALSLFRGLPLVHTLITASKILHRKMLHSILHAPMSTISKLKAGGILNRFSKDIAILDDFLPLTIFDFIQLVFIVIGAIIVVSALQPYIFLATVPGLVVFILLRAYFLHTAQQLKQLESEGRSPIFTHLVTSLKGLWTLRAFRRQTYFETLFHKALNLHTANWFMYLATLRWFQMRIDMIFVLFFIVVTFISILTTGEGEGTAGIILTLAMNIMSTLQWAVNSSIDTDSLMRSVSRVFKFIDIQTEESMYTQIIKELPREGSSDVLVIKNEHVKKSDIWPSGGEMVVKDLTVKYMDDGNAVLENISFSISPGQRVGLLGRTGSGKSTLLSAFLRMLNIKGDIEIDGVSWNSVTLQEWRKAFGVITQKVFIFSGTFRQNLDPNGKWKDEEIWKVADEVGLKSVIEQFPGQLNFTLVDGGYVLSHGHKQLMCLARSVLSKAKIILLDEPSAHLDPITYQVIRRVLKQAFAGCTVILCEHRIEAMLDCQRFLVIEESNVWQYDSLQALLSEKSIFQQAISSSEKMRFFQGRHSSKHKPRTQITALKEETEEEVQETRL

- biotinylation of CFTR (CFTR): significantly increased
Substance: lumacaftor [VX-809]
- forskolin-induced increase in cAMP (cAMP in PN cells; VX-809 10 μM 16 h, then forskolin 100 μM 30 min): reduced the forskolin-induced increase in cAMP
- resting cAMP levels in PN cells (cAMP in PN cells; VX-809 10 μM, 16 h vs untreated PN cells): significantly decreased the cAMP levels
- forskolin- or IBMX-induced increases in adenylyl cyclase activity (cAMP in PN cells; forskolin in combination with IBMX, data bars 5 and 9 FIG. 4B): did not affect the forskolin- or IBMX-induced increases in adenylyl cyclase activity
- AC3 levels (AC3): decreased
- Hsp70 expression in PN cells (Hsp70): reduced expression
